Measurements from US20220241308A1, “NEURONAL FUNCTION MODULATING AGENT” (University of Tsukuba, priority 2019, published 2022).

Tests used:
SH-SY5Y cells = assay: Cell survival experiment (MTT), cell death induced by amyloid β protein; assay type: cell-based; conditions: compound 12.56 μM, 72 h, compared to “Aβ”
Description: Each well of a 96-well plate (BD Biocoat) was seeded with SH-SY5Y cells (model of neuronal cells, ATCC) at a concentration of 2×10^5 cells/mL (100 μL/well) and the cells were cultured at 37° C. and 5% CO2 for 24 h. Culture medium used was F12/DMEM (Gibco) supplemented with 1% non-essential amino acids (Gibco), 15% FBS (Bio West), and 1% penicillin/streptomycin (Lonza).
After 24 h, the culture medium was completely removed with an aspirator, 100 μL of culture medium Opti-MEM (Gibco) was added to each well, and the cells were cultured at 37° C. and 5% CO2 for 24 h. […]
Absorbance at 570 nm was measured on a microplate reader (Sumitomo Dainippon Pharma) to measure the MTT formazan production to calculate % relative cell survival (designated as “Control” in FIG. 1).
24 h after seeding a 96-well plate (BD Biocoat) with SH-SY5Y cells, the culture medium was completely removed with an aspirator, amyloid β protein (Beta-Amyloid 1-42, AnaSpec) was mixed with Opti-MEM (Gibco) so that the final concentration was 15 μM, 100 μL of the mixture was added to each well, and the cells were cultured at 37° C. and 5% CO2 for 72 h to induce cell death. Except for performing the procedure described above, the MTT formazan production was measured as described above to calculate % relative cell survival (designated as “Aβ” in FIG. 1). […]

[1] = tested on: PARP1 (poly(ADP-ribose) polymerase 1); assay: Gene expression experiment (real-time PCR) in SH-SY5Y cells: PARP1; assay type: cell-based; conditions: 24 h
Description: SH-SY5Y cells were seeded in 100 mm-cell dishes (BD Biocoat) at concentrations of 3.7×10^5 cells/mL (10 mL/dish) and cultured for 24 h at 37° C. and 5% CO2. Culture medium used was F12/DMEM (Gibco) supplemented with 1% non-essential amino acids (Gibco), 15% FBS (Bio West), and 1% penicillin/streptomycin (Lonza). After 24 h, the culture medium was completely removed with an aspirator, 10 mL of culture medium Opti-MEM(Gibco) was added to each dish, and the cells were cultured for 24 h at 37° C. and 5% CO2. RNA was extracted from the culture cells and analyzed for the expression of genes described below by real-time PCR (designated as “Control” in FIGS. 2 to 8).
RNA extraction was performed using ISOGEN Reagent (Nippon Gene Co., Ltd.) in accordance with the protocol recommended by Nippo n Gene Co., Ltd. (see URL: https://www.nippongene.com/siyaku/product/extraction/tds/tds_isogen-rna-dna-protein.pdf). Real-time PCR was performed according to the protocol recommended by Thermo Fisher Scientific using a reagent kit for TaqMan Real-Time PCR (Thermo Fisher Scientific) (see URL: https://assets.thermofisher.com/TFS-Assets/LSG/manuals/4304449_TaqManPCRMM_UG.pdf).
24 h after seeding 100 mm-cell dishes (BD Biocoat) with SH-SY5Y cells, the culture medium was completely removed with an aspirator, amyloid β protein (Beta-Amyloid 1-42, AnaSpec) was mixed with Opti-MEM (Gibco) so that the final concentration was 5 μM, 10 mL of the mixture was added to each dish, the cells were cultured for 24 h at 37° C. and 5% CO2, and RNA was extracted. Except for performing the procedure described above, gene expression was analyzed as described above (designated as “Aβ” in FIGS. 2 to 8).
24 h after seeding 100 mm-cell dishes (BD Biocoat) with SH-SY5Y cells, the culture medium was completely removed with an aspirator, Sample 1 was mixed with culture medium Opti-MEM(Gibco) so that the final concentration was 12.56 μM, 9,990 μL of the mixture was added to each dish and allowed to stand for 10 min, amyloid β protein (Beta-Amyloid 1-42, AnaSpec) was mixed with Opti-MEM (Gibco) so that the final concentration was […], 10 μL of the mixture was added to each well, the cells were cultured for 24 h at 37° C. and 5% CO2, and RNA was extracted. Except for performing the procedure described above, Gene expression was analyzed as described above (designated as “Aβ+M3,5G” in FIGS. 2 to 8).
Except that Sample 2 was used instead of Sample 1, gene expression was analyzed as described above (designated as “Aβ+M” in FIGS. 2 to 8).
Except that Sample 3 was used instead of Sample 1, gene expression was analyzed as described above (designated as “Aβ+M3G” in FIGS. 2 to 8). […]

COc1cc(-c2[o+]c3cc(O)cc(OC4OC(CO)C(O)C(O)C4O)c3cc2OC2OC(CO)C(O)C(O)C2O)cc(OC)c1O (stereo not drawn) [M3,5G, Malvidin-3,5-diglucoside chloride]
% relative cell survival (SH-SY5Y cells): significantly high
expression of PARP1 ([1]; 12.56 μM, amyloid β protein-treated cells, compared to “Aβ”): significantly high
expression of PARP1 ([1]; Sample 1 alone, no amyloid β, compared to “Control”): comparable
